Series [1] addresses NmSiaDW α2-6-sialyltransferase activity (Neisseria meningitidis, UniProt O33390). Briefly: Enzyme kinetics by varying CMP-Neu5Ac concentrations, fixed acceptor G2 or G10. Format: biochemical. Particulars: apparent, fixed acceptor 1 mM (row names the acceptor). The method, then: Enzyme kinetics by varying donor concentrations. For varying UDP-Gal concentrations, reactions were performed in duplicate at 30° C. for 10 minutes in the presence of MES buffer (100 mM, pH 6.5), MgCl2 (10 mM), S3 or S9 (2 mM), UDP-Gal (0.1, 0.2, 0.5, 1.0, 2.0, 5.0 and 10.0 mM), and NmSiaDW (0.025 μM for S3, 0.031 μM for S9) in a total volume of 20 μL. For varying CMP-Neu5Ac concentrations, reactions were performed in duplicate at 30° C. for 10 minutes in the presence of Tris-HCl buffer (100 mM, pH 8.0), MgCl2 (10 mM), G2 or G10 (1 mM), CMP-Neu5Ac (0.2, 0.5, 1.0, 2.0, 5.0 and 10.0 mM), and NmSiaDW (0.025 μM for G2, 0.062 μM for G10) in a total volume of 20 μL. Data analyses were carried out as described above.
NmSiaDW kinetics studies where the concentrations of the donors were also conducted, using a fixed concentration of a representative short or long acceptor substrate. S3 or S9 was used as the acceptor substrate for varying the concentration of UDP-Gal and G2 or G10 was used as the acceptor substrate for varying the concentration of CMP-Neu5Ac. […] The averages of nonlinear regression standard errors from technical duplicates are shown.

Series [2] concerns the target NmSiaDW sialyltransferase activity (Neisseria meningitidis, UniProt O33390). The settings on record: apparent; varying acceptor, 10 mM CMP-Neu5Ac, pH 8.0, 30° C.
Series [3] deals with α2-6-sialyltransferase activity of NmSiaDW. Format: biochemical, Neisseria meningitidis.
Series [4] concerns the target NmSiaDW α1-4-galactosyltransferase activity (Neisseria meningitidis, UniProt O33390). The format is biochemical. Particulars: apparent; varying UDP-Gal, fixed acceptor 2 mM (row names the acceptor).
Series [5] deals with NmSiaDW galactosyltransferase activity (Neisseria meningitidis, UniProt O33390). Particulars: for increase of overall catalytic efficiency (kcat/KM) relative to monosaccharide S1: monosaccharide to nonasaccharide.
Series [6] has as its system NmSiaDW. The series can be described thus: Temperature profile of NmSiaDW activities. Format: biochemical, Neisseria meningitidis. The method, then:
Assays were carried out in duplicate at different temperatures for 20 min in a total volume of 10 μL in a buffer (MES, 100 mM, pH 6.5 for GalT and Tris-HCl, 100 mM, pH 8.0 for SiaT assays) containing a donor substrate (1.2 mM) (UDP-Gal for GalT and CMP-Neu5Ac for SiaT assays), an acceptor substrate (1 mM) (S1 for GalT and G2 for SiaT assays), MgCl2 (10 mM), and NmSiaDW (19.8 μg for GalT and 0.17 μg for SiaT assays). Reactions were quenched by adding 10 μL of pre-chilled ethanol to the reaction mixture followed by incubation at −20° C. for 30 min. Products were assayed as described above for pH profile studies.

Series [7] deals with NmSiaDW. The series can be described thus: Thermostability of NmSiaDW (pre-heated 30 min, then activity assay at 30° C.). The format is biochemical, Neisseria meningitidis. The method, then: Enzyme was pre-heated at a given temperature for 30 min, then put on ice for 10 min. Reactions were performed at 30° C. and activity assays were then carried out as described above for the temperature profile assays.

The mark [8] stands for this setting: apparent, varying acceptor, 2 mM UDP-Gal, pH 6.5, 30° C.
The mark [9] stands for this setting: α1-4-galactosyltransferase activity.

Like-named read-outs stand apart in the source and are kept apart here.

`CC(=O)N[C@H]1[C@H]([C@H](O)[C@H](O)CO)O[C@@](OCCCNC(=O)OCc2ccccc2)(C(=O)O)C[C@@H]1O[C@H]1O[C@H](CO)[C@H](O)[C@H](O)[C@H]1O` [G2, Galα1-4Neu5AcαProNHCbz]: in series [1], the kcat worked out at 7.1 ± 0.2 s⁻¹.
Consider `CC(=O)N[C@H]1[C@H]([C@H](O)[C@H](O)CO)O[C@@](OC[C@H]2O[C@H](O[C@H]3C[C@](OC[C@H]4O[C@H](O[C@H]5C[C@](OC[C@H]6O[C@H](O[C@H]7C[C@](OC[C@H]8O[C@H](O[C@H]9C[C@](OCCCNC(=O)OCc%10ccccc%10)(C(=O)O)O[C@@H]([C@H](O)[C@H](O)CO)[C@@H]9NC(C)=O)[C@H](O)[C@@H](O)[C@H]8O)(C(=O)O)O[C@@H]([C@H](O)[C@H](O)CO)[C@@H]7NC(C)=O)[C@H](O)[C@@H](O)[C@H]6O)(C(=O)O)O[C@@H]([C@H](O)[C@H](O)CO)[C@@H]5NC(C)=O)[C@H](O)[C@@H](O)[C@H]4O)(C(=O)O)O[C@@H]([C@H](O)[C@H](O)CO)[C@@H]3NC(C)=O)[C@H](O)[C@@H](O)[C@H]2O)(C(=O)O)C[C@@H]1O[C@H]1O[C@H](CO)[C@H](O)[C@H](O)[C@H]1O` [G10, Galα1(-4Neu5Acα2-6Galα1)4-4Neu5AcαProNHCbz], for which the kcat in series [1] was determined as 6.1 ± 0.2 s⁻¹; in series [2] it was 7.03 ± 0.39 s⁻¹.
Take `CO[C@H]1O[C@H](CO)[C@H](O)[C@H](O)[C@H]1O` [GalαOMe]: the Product result in series [3] is “Not Detected”.
Turning to `OC[C@H]1O[C@@H](O[C@H]2[C@H](O)[C@@H](O)C(O)O[C@@H]2CO)[C@H](O)[C@@H](O)[C@H]1O` (some centres unmarked) [Galβ1-4Glc], in series [3], the Product result is recorded as “√”.
Regarding `CC(=O)N[C@H]1[C@H]([C@H](O)[C@H](O)CO)O[C@@](OCCCNC(=O)OCc2ccccc2)(C(=O)O)C[C@@H]1O[C@H]1O[C@H](CO[C@]2(C(=O)O)C[C@H](O)[C@@H](NC(C)=O)[C@H]([C@H](O)[C@H](O)CO)O2)[C@H](O)[C@H](O)[C@H]1O` [S3, Neu5Acα2-6Galα1-4Neu5AcαProNHCbz], the kcat in series [4] worked out at 6.3 ± 0.2 s⁻¹.
`CC(=O)N[C@H]1[C@H]([C@H](O)[C@H](O)CO)O[C@@](OCCCNC(=O)OCc2ccccc2)(C(=O)O)C[C@@H]1O[C@H]1O[C@H](CO[C@]2(C(=O)O)C[C@H](O[C@H]3O[C@H](CO[C@]4(C(=O)O)C[C@H](O[C@H]5O[C@H](CO[C@]6(C(=O)O)C[C@H](O[C@H]7O[C@H](CO[C@]8(C(=O)O)C[C@H](O)[C@@H](NC(C)=O)[C@H]([C@H](O)[C@H](O)CO)O8)[C@H](O)[C@H](O)[C@H]7O)[C@@H](NC(C)=O)[C@H]([C@H](O)[C@H](O)CO)O6)[C@H](O)[C@H](O)[C@H]5O)[C@@H](NC(C)=O)[C@H]([C@H](O)[C@H](O)CO)O4)[C@H](O)[C@H](O)[C@H]3O)[C@@H](NC(C)=O)[C@H]([C@H](O)[C@H](O)CO)O2)[C@H](O)[C@H](O)[C@H]1O` [S9, Neu5Acα2(-6Galα1-4Neu5Acα2)4-ProNHCbz]: the turnover number (kcat) in series [4] is 9.0 ± 0.2 s⁻¹; in series [5] (setting [8]) it was 5.1 ± 0.3 s⁻¹. Besides, in series [5] (setting [8]), the Km is less than 50 µM. Besides, the “acceptor concentration above which substrate inhibition was observed” value in series [5] (galactosyltransferase activity, 2 mM UDP-Gal) was “higher than 2 mM”. In addition, the “increase of overall catalytic efficiency (kcat/KM) relative to monosaccharide S1” value is recorded as “more than 2100 fold” in series [5] (galactosyltransferase activity) and “More than 2300 fold” in series [5] (galactosyltransferase activity, listed as nonasaccharide).

B1: NmSiaDW: recombinant C-terminal His-tagged N. meningitidis serogroup W capsular polysaccharide synthase, SEQ ID NO:2 (protein)
chain: MAVIIFVNGIRAVNGLVKSSINTANAFAEEGLDVHLINFVGNITGAEHLYPPFHLHPNVKTSSIIDLFNDIPENVSCRNTPFYSIHQQFFKAEYSAHYKHVLMKIESLLSAEDSIIFTHPLQLEMYRLANNDIKSKAKLIVQIHGNYMEEIHNYEILARNIDYVDYLQTVSDEMLEEMHSHFKIKKDKLVFIPNITYPISLEKKEADFFIKDNEDIDNAQKFKRISIVGSIQPRKNQLDAIKIINKIKNENYILQIYGKSINKDYFELIKKYIKDNKLQNRILFKGESSEQEIYENTDILIMTSESEGFPYIFMEGMVYDIPIVVYDFKYGANDYSNYNENGCVFKTGDISGMAKKIIELLNNPEKYKELVQYNHNRFLKEYAKDVVMAKYFTILPRSFNNVSLSSAFSRKELDEFQNITFSIEDSNDLAHIWNFELTNPAQNMNFFALVGKRKFPMDAHIQGTQCTIKIAHKKTGNLLSLLLKKRNQLNLSRGYTLIAEDNSYEKYIGAISNKGNFEIIANKKSSLVTINKSTLELHEIPHELHQNKLLIALPNMQTPLKITDDNLIPIQASIKLEKIGNTYYPCFLPSGIFNNICLDYGEESKIINFSKYSYKYIYDSIRHIEQHTDISDIIVCNVYSWELIRASVIESLMEFTGKWEKHFQTSPKIDYRFDHEGKRSMDDVFSEETFIMEFPRKNGIDKKTAAFQNIPNSIVMEYPQTNGYSMRSHSLKSNVVAAKHFLEKLNKIKVDIKFKKHDLANIKKMNRIIYEHLGININIEAFLKPRLEKFKREEKYFHDFFKRNNFKEVIFPSTYWNPGIICAAHKQGIKVSDIQYAAITPYHPAYFKSPKSHYVADKLFLWSEYWNHELLPNPTREIGSGAAYWYALDDVRFSEKLNYDYIFLSQSRISSRLLSFAIEFALKNPQLQLLFSKHPDENIDLKNRIIPDNLIISTESSIQGINESRVAVGVYSTSLFEALACGKQTFVVKYPGYEIMSNEIDSGLFFAVETPEEMLEKTSPNWVAVADIENQFFGQEK
In the case of B1, the optimal temperature in series [6] (sialyltransferase activity) was 30-37 °C; in series [6] (setting [9]), 20-33 °C. Further, the “incubation temperature at which both glycosyltransferase activities were lost (30 minutes)” value in series [7] (both activities) worked out at 44 °C. Moreover, in series [7] (setting [9]), the “temperature up to which activity is retained after 30 minutes incubation” value is “up to 33 °C”. In series [7] (α2-6-sialyltransferase activity), the “incubation temperature above which activity decreased significantly (30 minutes)” value is “higher than 30 °C”.

These data come from patent US20220145343A1 (priority 2019, published 2022).
